Values joined by “and” are separate entries in the source; they are usually repeats but may differ in a detail not shown here. Equal values may be shown once.
Experiments:
E. coli [1] = conditions: reported value, against E. coli; cited from earlier work
S. aureus [2] = conditions: reported value, against S. aureus; cited from earlier work
[3] = in water; cited from earlier work
[4] = tested on: Escherichia coli (ATCC 29425); test: Biocidal testing by standard plating (colony counts relative to UVA negative control), Example 1; assay type: cell-based; conditions: 40 μM TTAB alone, one hour of exposure, FIG. 5
Method: (§1) All media and buffers were prepared with deionized water with a resistivity of at least 18 MΩ cm. Nutrient broth 234000 (Difco) was prepared according to manufacturer's instructions. Nutrient agar was prepared upon the addition of 8 g/L bacto agar (Difco). Staphylococcus aureus (ATCC 10832) and Escherichia coli (ATCC 29425) were both grown from glycerol-preserved stock which originated from first-generation cultures of original ATCC lyophilates grown in nutrient broth (containing 20% glycerol) and subsequently stored at −70° C. Cells of the aforementioned strains were grown upon the inoculation of glycerol stock on Difco nutrient agar at 37° C. for 24 hours. Cell culture preparation for biocidal testing entailed scraping S. aureus or E. coli colonies off their agar plates and transferring them to nutrient broth for growth. Cells were then incubated in an Orbital Incubator Shaker (American Instruments, Lafayette, Calif.) for 18 h at 37° C. with rapid shaking (250 rpm). Following the incubation period, cells were washed by two 15 min centrifugations at 4,400 rpm; in each case, supernatant was replaced by 30 mL of 0.85% NaCl following pellet formation.
(§2) The bacterial stock solution was either diluted or concentrated to 2×10^7 cells/mL. Samples were diluted by the addition of 0.85% NaCl, while concentrating the sample entailed centrifugation to pellet the cells, followed by removal of the necessary amount of supernatant and subsequent resuspension of the pellet by vortexing. 500 μL of bacterial solution was added to glass vials with 500 μL of sample solution to reach a final volume of 1 mL prior to analysis. Samples tested contained 10 μM OPE, 40 μM TTAB, or both 10 μM OPE and 40 μM TTAB. Biocidal activity under UVA irradiation was determined using a Luzchem LZC-ORG photoreactor (Luzchem Research, Ontario, Canada). This photoreactor was configured with 10 UVA lamps (0.975 mW/cm^2 over 316-400 nm) with a fan-powered exhaust to keep a stable temperature of 28° C. and a rotating carousel for homogeneous irradiation of samples. Samples exposed in the dark were kept at room temperature, 25° C. 70% Ethanol was used as a positive control, and a 60 minute UVA-irradiated sample of bacteria was used as a negative control.
(§3) The results of the live/dead assay were verified by confocal fluorescence microscopy using a Zeiss Confocal microscope with an Ar laser (488 nm) and a HeNe laser ([…]) as excitation sources. Standard plating techniques were utilized to validate flow cytometry data. This entailed pipetting and spreading 50 μL aliquots of diluted, unstained sample, onto nutrient agar plates. The plates were incubated at 37° C. for 18 hours, colonies were counted, and viabilities were calculated relative to the UVA negative control. […]

[5] = tested on: Staphylococcus aureus (ATCC 10832); test: as above; assay type: cell-based; conditions: FIG. 4
Method: as §1, §2, §3

[6] = tested on: Staphylococcus aureus (ATCC 10832); test: Live/dead flow cytometry biocidal assay, Example 1; assay type: cell-based; conditions: 60 minutes, 10 μM OPE
Method: All media and buffers were prepared with deionized water with a resistivity of at least 18 MΩ cm. Nutrient broth 234000 (Difco) was prepared according to manufacturer's instructions. Nutrient agar was prepared upon the addition of 8 g/L bacto agar (Difco). Staphylococcus aureus (ATCC 10832) and Escherichia coli (ATCC 29425) were both grown from glycerol-preserved stock which originated from first-generation cultures of original ATCC lyophilates grown in nutrient broth (containing 20% glycerol) and subsequently stored at −70° C. Cells of the aforementioned strains were grown upon the inoculation of glycerol stock on Difco nutrient agar at 37° C. for 24 hours. […]
The bacterial stock solution was either diluted or concentrated to 2×10^7 cells/mL. […] Biocidal activity under UVA irradiation was determined using a Luzchem LZC-ORG photoreactor (Luzchem Research, Ontario, Canada). […]
Flow cytometry gating and analysis were carried out as performed in previous studies of biocidal activity of OPEs (see Z. Malik, J. Hanania, Y. Nitzan New trends in photobiology bactericidal effects of photoactivated porphyrins—An alternative approach to antimicrobial drugs, Journal of Photochemistry and Photobiology B: Biology 1990, 5 (3-4), 281-293). […] 100,000 events were recorded in each sample. […]

E. coli (ATCC 29425) = test: Live/dead flow cytometry biocidal assay with samples UVA pre-irradiated before bacterial exposure, Example 2; assay type: cell-based, Escherichia coli; conditions: for biocidal activity vs. E. coli after pre-irradiation: then 30 minutes UVA with bacteria
Method: (§4) All media and buffers were prepared using deionized water with a resistivity exceeding 18 MΩ*cm. Nutrient Broth 234000 (Difco) was prepared according to manufacturer's instructions, and Nutrient Agar was prepared upon the addition of 8 g/L Bacto agar (Difco). Both S. aureus (ATCC 25923) and E. coli (ATCC 29425) were grown from glycerol-preserved stock. The frozen stock aliquots were generated from first-generation cultures of the original ATCC lyophilate, which were grown in Nutrient Broth containing 20% glycerol, and subsequently stored at −70° C. The cells were grown by inoculating the glycerol stock on Difco Nutrient Agar for 24 hours at 37° Celsius. For biocidal testing, S. aureus and E. coli cells were scraped off the agar plate with a flame-sterilized wire and transferred to nutrient broth. Cells were incubated in an Orbital Incubator Shaker (American Instruments, Lafayette, Calif.) at 37° Celsius in nutrient broth with rapid shaking (250 rpm) for 18 hours. Following the 18-hour incubation period, cells were separated from the nutrient broth by two 15-minute centrifugations at 4,400 rpm, each of which was followed by removal of the supernatant and re-suspension in 30 mL 0.85% NaCl.
(§5) Flow cytometry was implemented to determine the cell concentration of the 0.85% NaCl-suspended bacterial stock solutions. An Accuri C6 flow cytometer (Becton Dickinson, Franklin Lakes, N.J.) equipped with a blue laser that excites at 488 nm was utilized. Two filters were used: a green fluorescence filter (FL-1: 530 nm) and a red fluorescence filter (FL-3: 670 nm long pass). Two thresholds were used, a primary threshold and a secondary threshold. […] Flow cytometer core size in all experiments was 10 μm, with a flow rate of 14 μL/minute. Using these settings, 20 μL of un-stained stock solution was sufficient for identifying the stock concentration of cells.
For biocidal testing, the stock solution was either diluted or concentrated to 2×10^7 cells/mL. Equal volumes of the sample and bacterial solution were added to glass tubes prior to analysis. Cells were stained with 5 mM SYTO 21 (live stain; Life Technologies, Grand Island, N.Y.) and […] Propidium iodide (dead stain; Life Technologies, Grand Island, N.Y.) for 15-30 minutes prior to flow cytometry anaylsis. An example of the flow cytometry gating scheme for E. coli is shown below, in FIG. 14. […]
(§6) The solid compound OPE 1, as a dichloride salt, was dissolved in filtered water with a resistivity of 18 MΩ*cm to a final concentration of 10 μM. […] Progress of the photolysis was monitored by UV-visible absorption spectroscopy with a Molecular Devices Spectramax M5 spectrophotometer (Molecular Devices, Sunnyvale, Calif.). […]

S. aureus [7] = test: Confocal microscopy of bacteria irradiated with UVA for 15 minutes, Example 2; assay type: cell-based, Staphylococcus aureus; conditions: UVA light for 15 minutes, FIG. 22
Method: The solid compound OPE 1, as a dichloride salt, was dissolved in filtered water with a resistivity of 18 MΩ*cm to a final concentration of 10 μM. The solution was then exposed to UVA radiation via a Luzchem LZC-ORG photoreactor (Luzchem Research, Ontario, Canada) in a quartz tube or cuvette. This photoreactor was configured with 10 LZC-UVA lamps (>5.3 mW-cm^−2 over 316-400 nm, Luzchem Research, Ontario, Canada) with a fan-powered exhaust to keep a stable temperature and a carousel for homogeneous irradiation of samples. Progress of the photolysis was monitored by UV-visible absorption spectroscopy with a Molecular Devices Spectramax M5 spectrophotometer (Molecular Devices, Sunnyvale, Calif.). Sodium dodecyl sulfate (SDS) was obtained from Sigma Aldrich. For the OPE 1-SDS complexes, 10 μM OPE 1 was mixed with 40 μM SDS, 0.24% of the critical micelle concentration (CMC). S. aureus samples were exposed to a OPE 1-SDS complex where the concentration of SDS was 0.33 mM, as they were much more resilient to killing caused by SDS. Samples were irradiated for 0, 30, 60, and 120 minutes prior to exposure to bacteria. Once exposed to OPE 1 or 1-SDS complex, E. coli and S. aureus samples were irradiated with UVA in the photoreactor for 30 minutes and 15 minutes, respectively.

[8] = UVA photolysis under the same conditions, without surfactant; cited from earlier work
E. coli [9] = test: Confocal fluorescence microscopy of exposed bacteria, Example 2; assay type: cell-based, Escherichia coli; conditions: UVA, versus untreated cells, FIG. 20
S. aureus (ATCC 25923) = test: Live/dead flow cytometry biocidal assay with samples UVA pre-irradiated before bacterial exposure, Example 2; assay type: cell-based, Staphylococcus aureus; conditions: for biocidal activity vs. S. aureus after pre-irradiation: then 15 minutes UVA with bacteria
Method: as §4
as §5, with “Using these settings, 20 μL of un-stained stock solution was sufficient for identifying the stock concentration of cells.” left out
as §6

[10] = 10 μM OPE 1, 30 minutes of UVA irradiation prior to bacterial exposure
[11] = 10 μM OPE 1, 2 hours of UVA pre-exposure
[12] = 0.33 mM SDS alone, control experiment

For `CCCCCCCCCCCCCC[N+](C)(C)C.[Br-]` [TTAB, tetradecyl trimethylammonium bromide], the minimum inhibitory concentration (E. coli [1]) is given as 5 mM, the minimum inhibitory concentration (S. aureus [2]) is given as 5 mM and the critical micelle concentration [3] is given as 4.3 mM. The E. coli killed [4] was 56.1% and 56% and the S. aureus killed ([5]; 40 μM TTAB alone, one hour of exposure) was 8.7% and 9%.

For `O=S(=O)(O)CCCOc1ccc(C#Cc2ccc(C#Cc3ccc(OCCCS(=O)(=O)O)cc3)cc2)cc1` [OPE], the “S. aureus killed (immediate killing by flow cytometry)” value ([6]; in the dark) was 23.2%, the “S. aureus killed (immediate killing by flow cytometry)” value ([6]; under UVA irradiation) was 35.1% and the S. aureus killed ([5]; in the dark, 60 minutes, 10 μM OPE (complex: plus 40 μM TTAB)) was 41.3%. The S. aureus killed ([5]; in the light (UVA), 60 minutes, 10 μM OPE (complex: plus 40 μM TTAB)) was 68.1%.

In the case of `C[N+](C)(C)CCOc1ccc(C#Cc2ccc(C#Cc3ccc(OCC[N+](C)(C)C)cc3)cc2)cc1` [OPE 1], the “biocidal activity vs. E. coli after pre-irradiation” value (E. coli (ATCC 29425); [10]) is reported as “significant drop in biocidal activity”, the “biocidal activity vs. E. coli after pre-irradiation” value (E. coli (ATCC 29425); [11]) is reported as “nearly lost” and the “clustering of S. Aureus (stress response)” value (S. aureus [7]) is reported as “clusters of large numbers of cells”. For the same molecule, the “time of photolysis until absorbance diminished and fluorescence completely quenched” value [8] was ≤ 2 min, the “filamentous growth of E. coli (stress response)” value (E. coli [9]) was “more likely to undergo filamentous growth than untreated cells” and the “biocidal activity vs. S. aureus after pre-irradiation” value (S. aureus (ATCC 25923); [10]) was “significant drop in biocidal activity”. For the same molecule, the “biocidal activity vs. S. aureus after pre-irradiation” value (S. aureus (ATCC 25923); [11]) was “entirely lost”.

For `CCCCCCCCCCCCOS(=O)(=O)[O-].[Na+]` [SDS, sodium dodecyl sulfate], the “E. coli cells killed” value (E. coli (ATCC 29425); 40 μM SDS alone, control experiment) is given as ~40%, the “effect on E. coli” value (E. coli (ATCC 29425); [12]) is given as “significant killing” and the critical micelle concentration [3] is given as ~8.3 mM. For the same molecule, the “effect on S. aureus” value (S. aureus (ATCC 25923); [12]) was “viable”.

— patent US9968698B2, “Charged singlet-oxygen sensitizers and oppositely-charged surfactants” (STC.UNM, priority 2013, dated 2018)
